Experimental data as given in US12403135B2, “4H-pyrrolo[3,2-c]pyridin-4-one derivatives” (Bayer Aktiengesellschaft, priority 2019, dated 2025).
Like-named read-outs stand apart in the source and are kept apart here.

Key:
Assay type in all cases: cell-based
Ba/F3-EGFR L861Q cells = assay: BA/F3 (EGFR L861Q) proliferation, uncommon EGFR mutation; conditions: Table 10, classical activating and uncommon EGFR mutations
Experimental: (§1) Plates were incubated at 37° C. for 48 h. Retrovirus was harvested by filtering the media supernatant through a 0.45 μm filter.
(§2) Ba/F3 cells purchased from DSMZ were grown in RPMI+10% FBS+10 ng/mL IL-3 and infected with filtered retroviral supernatant at a 1:2 dilution. Polybrene was added to a concentration of 8 μg/mL, plates were spun for 90 min, and incubated overnight at 37° C. 2 μg/mL puromycin was added to the infected cells 24 h after infection and cells were continually grown in the presence of puromycin and 10 ng/mL IL-3. Following stably expressing Ba/F3 cell lines were generated: Ba/F3-EGFR-V769_D770 insASV, Ba/F3-EGFR-D770_N771 insNPG, Ba/F3-EGFR-N771_P772 insH, Ba/F3-EGFR-H773_V774 insNPH, Ba/F3-EGFR-D770_N771 insSVD C797S, Ba/F3-EGFR-E746_A750del C797S, Ba/F3-EGFR-L858R C797S, Ba/F3-EGFR L861Q and Ba/F3-ERBB2-A775_G776insYVMA (Ba/F3-vector-control).

[1] = molecular target: Ba/F3-EGFR-V769_D770 insASV cells (Homo sapiens, UniProt P00533, DUP767-769, cells depend on it); assay: BA/F3 (ASV) proliferation, EGFR Exon20 insertion mutation; conditions: Table 9; EGFR Exon20 insertion mutations; read-out: BA/F3 (ASV) IC50
Chain of Ba/F3-EGFR-V769_D770 insASV cells (P00533 with tags, fused parts or gaps DUP767-769): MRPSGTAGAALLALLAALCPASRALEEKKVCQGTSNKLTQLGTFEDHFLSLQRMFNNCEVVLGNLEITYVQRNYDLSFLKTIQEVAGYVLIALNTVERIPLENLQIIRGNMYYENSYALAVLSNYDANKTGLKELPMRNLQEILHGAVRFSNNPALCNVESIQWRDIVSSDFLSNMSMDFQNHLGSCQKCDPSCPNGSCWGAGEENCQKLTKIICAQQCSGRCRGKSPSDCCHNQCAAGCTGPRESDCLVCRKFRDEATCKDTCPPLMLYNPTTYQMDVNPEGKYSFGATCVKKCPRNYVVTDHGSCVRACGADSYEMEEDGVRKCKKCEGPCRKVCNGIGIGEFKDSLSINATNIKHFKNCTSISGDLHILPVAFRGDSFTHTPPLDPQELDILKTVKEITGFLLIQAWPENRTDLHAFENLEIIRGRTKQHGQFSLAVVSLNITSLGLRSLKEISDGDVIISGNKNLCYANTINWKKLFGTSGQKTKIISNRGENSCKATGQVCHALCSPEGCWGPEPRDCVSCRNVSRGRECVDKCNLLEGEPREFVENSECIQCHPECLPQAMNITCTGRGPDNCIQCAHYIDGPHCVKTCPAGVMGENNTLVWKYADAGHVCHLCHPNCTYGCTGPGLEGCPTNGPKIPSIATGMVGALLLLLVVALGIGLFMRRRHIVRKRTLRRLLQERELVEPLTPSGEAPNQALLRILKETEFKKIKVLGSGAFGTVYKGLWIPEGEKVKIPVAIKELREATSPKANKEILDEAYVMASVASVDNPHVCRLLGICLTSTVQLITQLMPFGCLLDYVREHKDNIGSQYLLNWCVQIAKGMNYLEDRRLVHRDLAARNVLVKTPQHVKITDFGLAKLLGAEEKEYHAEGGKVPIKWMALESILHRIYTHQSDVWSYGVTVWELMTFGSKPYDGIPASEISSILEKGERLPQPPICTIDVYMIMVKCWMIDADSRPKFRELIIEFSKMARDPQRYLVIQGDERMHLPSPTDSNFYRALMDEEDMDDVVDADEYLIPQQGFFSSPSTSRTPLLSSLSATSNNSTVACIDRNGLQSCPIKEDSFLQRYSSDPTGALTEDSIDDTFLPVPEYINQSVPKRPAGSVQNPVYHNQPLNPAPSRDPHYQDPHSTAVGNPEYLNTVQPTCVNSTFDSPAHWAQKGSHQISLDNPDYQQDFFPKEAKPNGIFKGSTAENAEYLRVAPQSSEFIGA
Experimental: as §1, §2

Ba/F3-EGFR-L858R cells = Ba/F3-EGFR-L858R cells (Homo sapiens, UniProt P00533, L858R, cells depend on it); assay: BA/F3 EGFR L858R cell survival assay, Cell Titer-Glo; conditions: read-out: BA/F3 (EGFR L858R) IC50
Chain of Ba/F3-EGFR-L858R cells (P00533 whole entry L858R): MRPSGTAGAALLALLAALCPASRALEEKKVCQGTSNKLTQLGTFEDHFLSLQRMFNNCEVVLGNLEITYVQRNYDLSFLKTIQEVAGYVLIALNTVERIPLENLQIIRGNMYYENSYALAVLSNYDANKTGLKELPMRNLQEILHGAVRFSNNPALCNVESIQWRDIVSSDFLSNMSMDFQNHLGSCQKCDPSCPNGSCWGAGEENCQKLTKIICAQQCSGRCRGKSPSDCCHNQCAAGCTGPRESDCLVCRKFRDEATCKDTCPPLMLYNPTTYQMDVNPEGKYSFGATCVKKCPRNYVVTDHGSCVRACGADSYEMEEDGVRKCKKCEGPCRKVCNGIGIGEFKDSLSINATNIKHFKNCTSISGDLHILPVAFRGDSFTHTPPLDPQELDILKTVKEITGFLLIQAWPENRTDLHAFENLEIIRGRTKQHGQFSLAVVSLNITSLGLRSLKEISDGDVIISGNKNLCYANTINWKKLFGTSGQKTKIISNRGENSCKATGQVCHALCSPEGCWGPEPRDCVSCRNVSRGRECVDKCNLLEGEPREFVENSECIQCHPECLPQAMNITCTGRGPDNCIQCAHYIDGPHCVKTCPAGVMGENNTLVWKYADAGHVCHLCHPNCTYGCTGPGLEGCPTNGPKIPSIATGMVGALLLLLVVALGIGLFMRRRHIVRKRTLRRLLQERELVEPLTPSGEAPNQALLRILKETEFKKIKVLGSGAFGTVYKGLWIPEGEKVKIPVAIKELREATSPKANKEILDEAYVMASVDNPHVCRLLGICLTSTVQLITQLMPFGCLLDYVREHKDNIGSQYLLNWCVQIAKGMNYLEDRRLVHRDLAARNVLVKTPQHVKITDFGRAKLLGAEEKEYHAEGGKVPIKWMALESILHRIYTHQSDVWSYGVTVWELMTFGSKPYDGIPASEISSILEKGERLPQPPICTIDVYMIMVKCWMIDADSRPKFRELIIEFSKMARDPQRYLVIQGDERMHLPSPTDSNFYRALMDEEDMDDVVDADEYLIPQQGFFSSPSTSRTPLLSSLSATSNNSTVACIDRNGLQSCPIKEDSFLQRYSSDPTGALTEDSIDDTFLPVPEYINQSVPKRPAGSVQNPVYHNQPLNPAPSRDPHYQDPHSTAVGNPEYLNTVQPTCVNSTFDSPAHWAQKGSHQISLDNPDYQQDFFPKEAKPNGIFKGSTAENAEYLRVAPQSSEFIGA
Experimental: as §1
(§3) Ba/F3 cells purchased from DSMZ were grown in RPMI+10% FBS+10 ng/mL IL-3 and infected with filtered retroviral supernatant at a 1:2 dilution. Polybrene was added to a concentration of 8 μg/mL, plates were spun for 90 min, and incubated overnight at 37° C. 2 μg/mL puromycin was added to the infected cells 24 h after infection and cells were continually grown in the presence of puromycin and 10 ng/mL IL-3. Following stably expressing Ba/F3 cell lines were generated: Ba/F3-EGFR-L858R, Ba/F3-EGFR-delLREA, (Ba/F3-vector-control).
(§4) For cell survival assays, Ba/F3 cells were grown to a density of 1-2 million cells per mL, spun down and resuspended in media without IL-3, and replated at a concentration 200,000-500,000 cells per mL. The cells ectopically expressing pBABEpuro empty vector were plated with 10 ng/mL IL-3.
(§5) 2 days later, cells were plated in 50 μL in a 384 well plate at a concentration of 4000 cells per well for cells assayed in the absence of IL-3 and 2000 cells per well for cells (pBABE puro empty vector) assayed in the presence of IL-3. 100 nL of compound was added to each well using a 100 nL pin head, and plates were incubated at 37° C. for 48 h.
(§6) Cell viability was measured by adding 20 μL of Cell Titer-Glo Luminescent Cell Viability Reagent diluted 1:3 in PBS. Plates were sealed with Perkin Elmer Top-Seal, inverted several times to mix, and immediately centrifuged at 1000 rpm for 2 min. Plates were incubated in low light conditions for 8-10 min and luminescence was measured.

[2] = system: Ba/F3-EGFR-D770_N771 insSVD C797S cells; assay: BA/F3 (EGFR D770_N771 insSVD C797S) proliferation, acquired resistance; conditions: Ba/F3 EGFR-D770-N771ins_SVD; Table 11; acquired resistance space
Experimental: as §1, §2

[3] = system: Ba/F3-EGFR-delLREA cells (EGFR del19/delLREA (746-750), E746_A750del); assay: BA/F3 EGFR del19/delLREA (746-750) (E746_A750del) cell survival assay, Cell Titer-Glo
Experimental: as §1, §3, §4, §5, §6

[4] = molecular target: Ba/F3-ERBB2-A775_G776insYVMA cells (Homo sapiens, UniProt P04626, DUP772-775, cells depend on it); assay: BA/F3 (ERBB2 A775_G776 insYVMA) proliferation; conditions: Table 12; read-out: BA/F3 (ERBB2 A775_G776 insYVMA) IC50
Chain of Ba/F3-ERBB2-A775_G776insYVMA cells (P04626 with tags, fused parts or gaps DUP772-775): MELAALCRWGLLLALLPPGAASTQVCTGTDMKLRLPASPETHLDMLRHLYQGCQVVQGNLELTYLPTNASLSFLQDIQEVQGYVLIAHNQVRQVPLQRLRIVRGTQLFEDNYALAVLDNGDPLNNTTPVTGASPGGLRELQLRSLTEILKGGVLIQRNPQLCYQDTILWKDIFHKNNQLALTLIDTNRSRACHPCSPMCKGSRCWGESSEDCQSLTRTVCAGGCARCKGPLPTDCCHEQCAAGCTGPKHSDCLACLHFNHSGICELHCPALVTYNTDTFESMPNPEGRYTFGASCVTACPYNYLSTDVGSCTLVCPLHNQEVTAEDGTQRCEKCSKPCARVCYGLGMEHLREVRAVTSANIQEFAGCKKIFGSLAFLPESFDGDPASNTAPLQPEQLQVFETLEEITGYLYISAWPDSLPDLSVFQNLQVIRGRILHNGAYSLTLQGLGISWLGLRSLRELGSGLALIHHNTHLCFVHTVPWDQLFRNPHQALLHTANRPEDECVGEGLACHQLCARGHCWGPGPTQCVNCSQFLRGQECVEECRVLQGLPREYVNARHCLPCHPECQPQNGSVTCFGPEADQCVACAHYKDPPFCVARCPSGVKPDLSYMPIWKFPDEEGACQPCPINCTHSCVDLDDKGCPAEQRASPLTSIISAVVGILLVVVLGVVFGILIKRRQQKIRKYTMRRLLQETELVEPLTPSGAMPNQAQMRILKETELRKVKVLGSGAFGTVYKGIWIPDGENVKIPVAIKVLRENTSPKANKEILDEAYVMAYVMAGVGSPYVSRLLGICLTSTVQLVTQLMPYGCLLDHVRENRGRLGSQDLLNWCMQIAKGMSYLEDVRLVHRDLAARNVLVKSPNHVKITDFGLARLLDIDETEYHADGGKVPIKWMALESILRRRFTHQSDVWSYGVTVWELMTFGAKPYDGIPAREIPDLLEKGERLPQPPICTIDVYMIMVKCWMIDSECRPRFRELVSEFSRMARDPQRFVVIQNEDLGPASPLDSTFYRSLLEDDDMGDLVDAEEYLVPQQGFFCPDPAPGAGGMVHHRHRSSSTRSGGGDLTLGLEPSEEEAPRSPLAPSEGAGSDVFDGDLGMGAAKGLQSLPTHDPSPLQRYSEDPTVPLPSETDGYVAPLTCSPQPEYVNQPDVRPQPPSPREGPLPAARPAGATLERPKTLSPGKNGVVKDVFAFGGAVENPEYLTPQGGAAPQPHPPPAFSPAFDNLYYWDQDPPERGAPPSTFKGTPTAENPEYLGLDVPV
Experimental: as §1, §2

[5] = molecular target: Ba/F3-EGFR-D770_N771 insNPG cells (Homo sapiens, UniProt P00533, INS772GNP, cells depend on it); assay: BA/F3 (insNPG) proliferation, EGFR Exon20 insertion mutation; conditions: Table 9; EGFR Exon20 insertion mutations; read-out: BA/F3 (insNPG) IC50
Experimental: as §1, §2

[6] = system: Ba/F3-EGFR-L858R C797S cells; assay: BA/F3 (EGFR L858R C797S) proliferation, acquired resistance; conditions: Table 11, acquired resistance space
Experimental: as §1, §2

[7] = molecular target: Ba/F3-EGFR-WT cells (BA/F3 wild type EGFR) (Homo sapiens, UniProt P00533); assay: BA/F3 (wild type) proliferation assay, Cell Titer-Glo; conditions: Table 7; plated with 10 ng/mL EGF, without IL-3, 48 h; read-out: BA/F3 (wild type) IC50
Chain of Ba/F3-EGFR-WT cells (BA/F3 wild type EGFR) (P00533 whole entry, change not shown): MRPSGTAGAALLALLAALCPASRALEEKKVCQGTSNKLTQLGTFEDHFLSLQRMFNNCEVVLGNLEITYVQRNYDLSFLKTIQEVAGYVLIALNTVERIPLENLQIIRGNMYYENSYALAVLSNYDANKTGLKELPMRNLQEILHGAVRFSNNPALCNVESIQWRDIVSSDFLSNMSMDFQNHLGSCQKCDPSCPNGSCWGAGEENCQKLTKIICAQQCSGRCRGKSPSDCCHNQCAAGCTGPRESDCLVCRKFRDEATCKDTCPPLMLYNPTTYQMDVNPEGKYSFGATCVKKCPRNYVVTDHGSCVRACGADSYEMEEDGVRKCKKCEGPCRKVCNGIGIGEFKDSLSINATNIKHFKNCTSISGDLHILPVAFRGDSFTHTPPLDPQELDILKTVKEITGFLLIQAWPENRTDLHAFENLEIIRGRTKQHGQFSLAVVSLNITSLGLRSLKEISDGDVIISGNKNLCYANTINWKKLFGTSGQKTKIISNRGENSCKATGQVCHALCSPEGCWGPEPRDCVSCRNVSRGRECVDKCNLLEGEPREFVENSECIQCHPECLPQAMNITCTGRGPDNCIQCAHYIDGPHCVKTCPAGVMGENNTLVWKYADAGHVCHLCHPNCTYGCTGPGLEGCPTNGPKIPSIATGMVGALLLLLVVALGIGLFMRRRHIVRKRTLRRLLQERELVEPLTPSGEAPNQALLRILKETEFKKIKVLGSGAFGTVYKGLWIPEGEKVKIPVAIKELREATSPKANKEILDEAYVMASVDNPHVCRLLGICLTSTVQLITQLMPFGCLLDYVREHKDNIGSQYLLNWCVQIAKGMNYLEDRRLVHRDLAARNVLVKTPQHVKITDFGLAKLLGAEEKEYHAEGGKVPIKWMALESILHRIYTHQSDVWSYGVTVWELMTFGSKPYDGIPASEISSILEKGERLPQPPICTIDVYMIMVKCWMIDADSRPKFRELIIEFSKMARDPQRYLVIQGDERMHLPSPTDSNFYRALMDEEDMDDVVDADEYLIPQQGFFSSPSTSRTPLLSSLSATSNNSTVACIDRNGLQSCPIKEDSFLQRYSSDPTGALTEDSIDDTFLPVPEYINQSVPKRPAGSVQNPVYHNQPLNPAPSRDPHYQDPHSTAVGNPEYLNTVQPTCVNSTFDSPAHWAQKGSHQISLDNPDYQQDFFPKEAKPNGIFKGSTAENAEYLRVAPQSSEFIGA
Experimental: as §1
as §3, with “Ba/F3-EGFR-WT.” for “Ba/F3-EGFR-L858R, Ba/F3-EGFR-delLREA, (Ba/F3-vector-control).”
For cell survival assays, Ba/F3 cells were grown to a density of 1-2 million cells per mL, spun down and resuspended in media without IL-3, and replated at a concentration 200,000-500,000 cells per mL. The cells ectopically expressing WT EGFR were plated with 10 ng/mL Millipore Culture grade EGF.
24 hours later, cells were plated in 30 μL in a 384 well plate at a concentration of 3200 cells per well for cells assayed in the absence of IL-3. 100 nL of compound was added to each well using a 100 nL pin head, and plates were incubated at 37° C. for 48 h.
as §6, with “30” for “20”, “Reagent.” for “Reagent diluted 1:3 in PBS.”

[8] = system: Ba/F3-EGFR-E746_A750del C797S cells; assay: BA/F3 (EGFR E746_A750del C797S) proliferation, acquired resistance; conditions: Table 11, acquired resistance space
Experimental: as §1, §2

For `COc1c(F)cccc1Nc1c(-c2ccncc2OCC(C)(C)OC)[nH]c2c1C(=O)NCC2` [Example 17, 3-[(3-fluoro-2-methoxyphenyl)amino]-2-[3-(2-methoxy-2-methylpropoxy)pyridin-4-yl]-1,5,6,7-tetrahydro-4H-pyrrolo[3,2-c]pyridin-4-one], which IC50 (Ba/F3-EGFR L861Q cells) is on record?
Its IC50 is 25.7 nM.

And the GI50 [1]?
The GI50 was 15.3 nM.

What about the GI50 (Ba/F3-EGFR-L858R cells; Table 8, without IL-3, 48 h) of the same compound?
Its GI50 is 1.2 nM.

What about the GI50 (Ba/F3-EGFR-L858R cells; Table 10, classical activating and uncommon EGFR mutations) of the same compound?
The GI50 was 1.49 nM.

And the IC50 [2]?
Its IC50 is 16.6 nM.

And the IC50 ([3]; Table 8, without IL-3, 48 h, read-out: BA/F3 (EGFR del19/delREA (746-750) IC50))?
Its IC50 is 0.13 nM.

What about the IC50 ([3]; Table 10, classical activating and uncommon EGFR mutations, read-out: BA/F3 (EGFR E746_A750del) IC50) of the same compound?
Its IC50 is 0.575 nM.

What about the GI50 [4] of the same compound?
Its GI50 is 17.1 nM.

And the GI50 [5]?
Its GI50 is 12.8 nM.

And the IC50 [6]?
The IC50 was 1.16 nM.

What about the GI50 [7] of the same compound?
The GI50 was 397 nM.

What about the IC50 [8] of the same compound?
Its IC50 is 0.292 nM.
